# Data: paper PMC3618516, “A Systematic Screen of FDA-Approved Drugs for Inhibitors of Biological Threat Agents” (PLoS ONE, 2013)
# pEC50: −log10 of the molar value. Like-named read-outs stand apart in the source and are kept apart here.
# Experiments:
# [1] = tested on: MARV GP-pseudotyped vesicular stomatitis virus; assay: microbe, parasite or virus in culture; format: cell-based, Marburg virus; conditions: for inhibition at 10 µM / inhibition at 50 µM: Vesicular stomatitis virus, HEK-293T, read-out: MASV VPEN (% activity)
# [2] = tested on: MARV; assay: organism not typed; format: cell-based, Marburg virus
# [3] = tested on: EBOV; assay: microbe, parasite or virus in culture; format: cell-based, Ebola virus
# [4] = tested on: EBOV GP-pseudotyped vesicular stomatitis virus; assay: microbe, parasite or virus in culture; format: cell-based, Ebola virus; conditions: for inhibition at 10 µM / inhibition at 50 µM: Zaire ebolavirus, HEK-293T, read-out: EBOV VPEN (% activity)
# [5] = tested on: LASV GP-pseudotyped vesicular stomatitis virus; assay: microbe, parasite or virus in culture; format: cell-based, Lassa virus; conditions: Vesicular stomatitis virus, HEK-293T, read-out: LASV VPEN (% activity)
# [6] = tested on: EBOV; format: cell-based, Ebola virus
# [7] = tested on: LASV; format: cell-based, Lassa virus
# [8] = tested on: Francisella tularensis; assay: microbe, parasite or virus in culture; format: cell-based; conditions: J774.A1, 15 h, read-out: Fransciella tularensis ICR (% protection)
# [9] = tested on: Coxiella burnetii; assay: microbe, parasite or virus in culture; format: cell-based; conditions: Vero, 168 h, read-out: Coxiella burnetii ICR (% protection)
# [10] = tested on: Bacillus anthracis; format: cell-based; conditions: 50 µM
# [11] = tested on: Bacillus anthracis; assay: microbe, parasite or virus in culture; format: cell-based; conditions: J774.A1, 15 h, read-out: Bacillus anthracis ICR (% protection)
# [12] = tested on: Francisella tularensis; format: cell-based; conditions: 50 µM
compound,measurement,setting,value
"CCN(CC)CCCNc1ccnc2cc(Cl)ccc12 [AQ-13, Aminoquinoline-13]",pEC50,"[1]; read-out: EC50, MARV Entry",5.37
same,EC90,"[1]; read-out: EC90, MARV Entry",16 µM
same,pEC50,"[2]; read-out: EC50, MARV Replication",4.38
same,EC90,"[2]; read-out: EC90, MARV Replication",48 µM
same,pEC50,"[3]; read-out: EC50, EBOV Replication",4.68
same,EC90,"[3]; read-out: EC90, EBOV Replication",39 µM
same,pEC50,"[4]; read-out: EC50, EBOV Entry",5.37
same,EC90,"[4]; read-out: EC90, EBOV Entry",20 µM
CCOC(=O)C1=C(COCCN)NC(C)=C(C(=O)OC)C1c1ccccc1Cl (stereo not shown) [Amlodipine],inhibition at 10 µM,[1]; 10 µM,93%
same,inhibition at 10 µM,[5]; 10 µM,61%
same,inhibition at 10 µM,[4]; 10 µM,93%
OC(CCN1CCCCC1)(c1ccccc1)C1CC2C=CC1C2 (stereo not shown) [Biperiden],EBOV VR,[6]; 50 µM,−
same,inhibition at 50 µM,[1],89%
same,inhibition at 50 µM,[5],27%
same,LASV VR,[7]; 50 µM,−
same,inhibition at 50 µM,[4],98%
CC(C(=O)O)c1ccc2c(c1)[nH]c1ccc(Cl)cc12 (stereo not shown) [Carprofen],EBOV VR,[6]; 10 µM,−
same,inhibition at 10 µM,[1]; 10 µM,88%
same,inhibition at 10 µM,[5]; 10 µM,50%
same,LASV VR,[7]; 10 µM,−
same,inhibition at 10 µM,[4]; 10 µM,94%
CCC[C@@H]1C[C@@H](C(=O)N[C@@H]([C@H]2O[C@H](SC)[C@H](O)[C@@H](O)[C@H]2O)[C@H](C)Cl)N(C)C1 [Clindamycin],inhibition at 50 µM,[8],83%
same,inhibition of growth at 50 µM,[9],0%
CN(C)CC[C@@H](c1ccc(Br)cc1)c1ccccn1 [Dexbrompheniramine],inhibition at 50 µM,[1],80%
same,inhibition at 50 µM,[5],74%
same,inhibition at 50 µM,[4],85%
CCCCOc1cc(C(=O)NCCN(CC)CC)c2ccccc2n1 [Dibucaine],EBOV VR,[6]; 10 µM,−
same,inhibition at 10 µM,[1]; 10 µM,93%
same,inhibition at 10 µM,[5]; 10 µM,49%
same,inhibition at 10 µM,[4]; 10 µM,99%
CCOC(=O)C1(c2ccccc2)CCN(CCC(C#N)(c2ccccc2)c2ccccc2)CC1 [Diphenoxylate],EBOV VR,[6]; 50 µM,+
same,inhibition at 50 µM,[1],95%
same,inhibition at 50 µM,[5],83%
same,inhibition at 50 µM,[4],96%
CN1CCC(OC(c2ccccc2)c2ccccc2)CC1 [Diphenylpyraline],EBOV VR,[6]; 50 µM,+
same,inhibition at 50 µM,[1],85%
same,inhibition at 50 µM,[5],22%
same,LASV VR,[7]; 50 µM,−
same,inhibition at 50 µM,[4],96%
CNCC(O)c1ccc(OC(=O)C(C)(C)C)c(OC(=O)C(C)(C)C)c1 (stereo not shown) [Dipivefrin],EBOV VR,[6]; 50 µM,−
same,inhibition at 50 µM,[1],90%
same,inhibition at 50 µM,[5],90%
same,LASV VR,[7]; 50 µM,−
same,inhibition at 50 µM,[4],94%
CC[C@H]1OC(=O)[C@H](C)[C@@H](O[C@H]2C[C@@](C)(OC)[C@@H](O)[C@H](C)O2)[C@H](C)[C@@H](O[C@@H]2O[C@H](C)C[C@H](N(C)C)[C@H]2O)[C@](C)(O)C[C@@H](C)C(=O)[C@H](C)[C@@H](O)[C@]1(C)O [Erythromycin],inhibition at 50 µM,[8],104%
same,Bacillus anthracis Broth (% protection),[10],+
same,EBOV VR,[6]; 10 µM,−
same,inhibition at 10 µM,[1]; 10 µM,98%
same,inhibition at 10 µM,[5]; 10 µM,60%
same,LASV VR,[7]; 10 µM,−
same,inhibition of growth at 50 µM,[9],100%
same,inhibition at 50 µM,[11],96%
same,inhibition at 10 µM,[4]; 10 µM,96%
same,Fransciella tularensis Broth (% protection),[12],+
C[C@]12CC[C@@H]3c4ccc(O)cc4CC[C@H]3[C@@H]1CC[C@@H]2O [Estradiol],EBOV VR,[6]; 10 µM,−
same,inhibition at 10 µM,[1]; 10 µM,98%
same,inhibition at 10 µM,[5]; 10 µM,50%
same,LASV VR,[7]; 10 µM,−
same,inhibition at 10 µM,[4]; 10 µM,93%
CNCCC(Oc1ccc(C(F)(F)F)cc1)c1ccccc1 (stereo not shown) [Fluoxetine],EBOV VR,[6]; 10 µM,−
same,inhibition at 10 µM,[1]; 10 µM,98%
same,inhibition at 10 µM,[5]; 10 µM,76%
same,LASV VR,[7]; 10 µM,−
same,inhibition at 10 µM,[4]; 10 µM,96%
CO/N=C1\CN(c2nc3c(cc2F)c(=O)c(C(=O)O)cn3C2CC2)CC1CN (stereo not shown) [Gemifloxacin],inhibition at 50 µM,[8],91%
same,Bacillus anthracis Broth (% protection),[10],−
same,inhibition of growth at 50 µM,[9],0%
same,inhibition at 50 µM,[11],97%
same,Fransciella tularensis Broth (% protection),[12],−
CN1CCC(=C2c3ccccc3CC(=O)c3sccc32)CC1 [Ketotifen],EBOV VR,[6]; 50 µM,+
same,inhibition at 50 µM,[1],97%
same,inhibition at 50 µM,[5],33%
same,LASV VR,[7]; 50 µM,−
same,inhibition at 50 µM,[4],99%
CCC(=O)O[C@@](Cc1ccccc1)(c1ccccc1)[C@@H](C)CN(C)C [Levopropoxyphene],inhibition at 50 µM,[1],89%
same,inhibition at 50 µM,[5],79%
same,inhibition at 50 µM,[4],98%
CN(C)c1ccc(O)c2c1C[C@H]1C[C@H]3[C@H](N(C)C)C(O)=C(C(N)=O)C(=O)[C@@]3(O)C(O)=C1C2=O [Minocycline],inhibition at 50 µM,[8],92%
same,Bacillus anthracis Broth (% protection),[10],−
same,inhibition of growth at 50 µM,[9],0%
same,inhibition at 50 µM,[11],95%
same,Fransciella tularensis Broth (% protection),[12],−
COc1c(C)c2c(c(O)c1C/C=C(\C)CCC(=O)OCCN1CCOCC1)C(=O)OC2 [Mycophenolate mofetil],EBOV VR,[6]; 50 µM,−
same,inhibition at 50 µM,[1],81%
same,inhibition at 50 µM,[5],69%
same,LASV VR,[7]; 50 µM,−
same,inhibition at 50 µM,[4],91%
CCN[C@@H]1C[C@H](N)[C@@H](O[C@H]2OC(CN)=CC[C@H]2N)[C@H](O)[C@H]1O[C@H]1OC[C@](C)(O)[C@H](NC)[C@H]1O [Netilmicin],inhibition at 50 µM,[8],-2%
same,Bacillus anthracis Broth (% protection),[10],+
same,inhibition of growth at 50 µM,[9],100%
same,inhibition at 50 µM,[11],98%
same,Fransciella tularensis Broth (% protection),[12],+
CN1CCCN=C1COC(=O)C(O)(c1ccccc1)C1CCCCC1 (stereo not shown) [Oxyphencyclimine],EBOV VR,[6]; 50 µM,−
same,inhibition at 50 µM,[1],89%
same,inhibition at 50 µM,[5],28%
same,LASV VR,[7]; 50 µM,−
same,inhibition at 50 µM,[4],95%
CN(C)[C@@H]1C(O)=C(C(N)=O)C(=O)[C@@]2(O)C(O)=C3C(=O)c4c(O)cccc4[C@@](C)(O)[C@H]3[C@H](O)[C@@H]12 [Oxytetracycline],inhibition at 50 µM,[8],92%
same,Bacillus anthracis Broth (% protection),[10],+
same,inhibition of growth at 50 µM,[9],0%
same,inhibition at 50 µM,[11],94%
same,Fransciella tularensis Broth (% protection),[12],+
Fc1ccc([C@@H]2CCNC[C@H]2COc2ccc3c(c2)OCO3)cc1 [Paroxetine],EBOV VR,[6]; 10 µM,−
same,inhibition at 10 µM,[1]; 10 µM,89%
same,inhibition at 10 µM,[5]; 10 µM,6%
same,LASV VR,[7]; 10 µM,−
same,inhibition at 10 µM,[4]; 10 µM,98%
CC(C)(C)NC[C@H](O)COc1ccccc1C1CCCC1 [Penbutolol],inhibition at 10 µM,[1]; 10 µM,81%
same,inhibition at 10 µM,[5]; 10 µM,67%
same,inhibition at 10 µM,[4]; 10 µM,98%
CN1CCN(CCCN2c3ccccc3Sc3ccc(Cl)cc32)CC1 [Prochlorperazine],inhibition at 10 µM,[1]; 10 µM,93%
same,inhibition at 10 µM,[5]; 10 µM,70%
same,inhibition at 10 µM,[4]; 10 µM,95%
CNCCCC1c2ccccc2C=Cc2ccccc21 [Protriptyline],inhibition at 10 µM,[1],80%
same,inhibition at 10 µM,[5],28%
same,inhibition at 10 µM,[4],83%
CN(C)[C@@H]1C(O)=C(C(N)=O)C(=O)[C@@]2(O)C(O)=C3C(=O)c4c(O)cccc4[C@@](C)(O)[C@H]3C[C@@H]12 [Tetracycline],inhibition at 50 µM,[8],103%
same,inhibition of growth at 50 µM,[9],0%
same,inhibition at 50 µM,[11],105%
CN(C)CCOc1ccc(/C(=C(/CCCl)c2ccccc2)c2ccccc2)cc1 [Toremifene],inhibition at 10 µM,[1]; 10 µM,96%
same,inhibition at 10 µM,[5]; 10 µM,76%
same,inhibition at 10 µM,[4]; 10 µM,97%
OC(CCN1CCCCC1)(c1ccccc1)C1CCCCC1 (stereo not shown) [Trihexyphenidyl],EBOV VR,[6],−
same,inhibition at 10 µM,[1],91%
same,inhibition at 10 µM,[5],52%
same,LASV VR,[7],−
same,inhibition at 10 µM,[4],97%
